Results taken from US20250101028A1, “HETEROCYCLIC COMPOUNDS, COMPOSITIONS THEREOF, AND METHODS OF TREATMENT THEREWITH” (BeiGene, Ltd., priority 2022, published 2025).

What follows are molecules tested against T1, GST-tagged GDP-loaded KRAS G12V (amino acids 1-169) (Homo sapiens, UniProt P01116, G12V) (assay: KRAS G12V probe displacement assay (TR-FRET)). Settings: displacement of biotinylated probe 2 from GDP-loaded KRAS G12V.
T1 construct: GST-tagged GDP-loaded KRAS G12V (amino acids 1-169); made in house; host or cells: E. coli
T1 sequence (P01116 1-169 isoform P01116-2 G12V): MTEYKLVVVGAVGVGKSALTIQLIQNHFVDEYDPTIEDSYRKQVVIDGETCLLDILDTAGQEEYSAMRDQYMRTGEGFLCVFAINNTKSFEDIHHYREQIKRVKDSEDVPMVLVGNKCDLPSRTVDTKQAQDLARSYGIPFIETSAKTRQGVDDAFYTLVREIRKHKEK
Type: binding
Procedure, shortened: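 Probe displacement read as TR-FRET (665/620 nm) with anti-GST-Tb and streptavidin-XL665, IC50 from four-parameter logistic fit. Compound preincubated 1 h, 24 °C, with E. coli-expressed KRAS 1-169: WT at 3 nM with 60 nM probe 1, G12V at 2 nM with 2.5 nM probe 2, pH 7.5.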

Compound | IC50 [nM]
Nc1nc2c(-c3c(C(F)(F)F)cc4c(NC5CC6(CCC6)C5)nc(OC[C@@]56CCCN5C[C@H](F)C6)nc4c3F)ccc(F)c2s1 [Example 22, 7-fluoro-4-(8-fluoro-2-(((2R,7aS)-2-fluorotetrahydro-1H-pyrrolizin-7a(5H)-yl)methoxy)-4-(spiro[3.3]heptan-2-ylamino)-6-(trifluoromethyl)quinazolin-7-yl)benzo[d]thiazol-2-amine] | 367
N#C[C@H]1CCC[C@H]1Nc1nc(OC[C@@]23CCCN2C[C@H](F)C3)nc2c(F)c(-c3ccc(F)c4sc(N)nc34)c(C(F)(F)F)cc12 [Example 26, (1S,2R)-2-((7-(2-amino-7-fluorobenzo[d]thiazol-4-yl)-8-fluoro-2-(((2R,7aS)-2-fluorotetrahydro-1H-pyrrolizin-7a(5H)-yl)methoxy)-6-(trifluoromethyl)quinazolin-4-yl)amino)cyclopentane-1-carbonitrile] | 11
Nc1nc2c(-c3c(C(F)(F)F)cc4c(N5CCC6(CC5)CN(CC(F)F)C(=O)O6)nc(OC[C@@]56CCCN5C[C@H](F)C6)nc4c3F)ccc(F)c2s1 [Example 90, 8-(7-(2-amino-7-fluorobenzo[d]thiazol-4-yl)-8-fluoro-2-(((2R,7aS)-2-fluorotetrahydro-1H-pyrrolizin-7a(5H)-yl)methoxy)-6-(trifluoromethyl)quinazolin-4-yl)-3-(2,2-difluoroethyl)-1-oxa-3,8-diazaspiro[4.5]decan-2-one] | 4.2
CC1(O)CN(c2nc(OC[C@@]34CCCN3C[C@H](F)C4)nc3c(F)c(-c4ccc(F)c5sc(N)nc45)c(C(F)(F)F)cc23)C1 [Example 46, 1-(7-(2-amino-7-fluorobenzo[d]thiazol-4-yl)-8-fluoro-2-(((2R,7aS)-2-fluorotetrahydro-1H-pyrrolizin-7a(5H)-yl)methoxy)-6-(trifluoromethyl)quinazolin-4-yl)-3-methylazetidin-3-ol] | 7.1
Nc1nc2c(-c3c(C(F)(F)F)cc4c(N[C@H]5C[C@@H](CO)C5)nc(OC[C@@]56CCCN5C[C@H](F)C6)nc4c3F)ccc(F)c2s1 [Example 20, ((cis)-3-((7-(2-amino-7-fluorobenzo[d]thiazol-4-yl)-8-fluoro-2-(((2R,7aS)-2-fluorotetrahydro-1H-pyrrolizin-7a(5H)-yl)methoxy)-6-(trifluoromethyl)quinazolin-4-yl)amino)cyclobutyl)methanol] | 7.9
Nc1cc(Cl)c(C(F)(F)F)c(-c2ncc3c(NC4CCC4)nc(OC[C@@]45CCCN4C[C@H](F)C5)nc3c2F)c1 [Example 111, 7-(5-amino-3-chloro-2-(trifluoromethyl)phenyl)-N-cyclobutyl-8-fluoro-2-(((2R,7aS)-2-fluorotetrahydro-1H-pyrrolizin-7a(5H)-yl)methoxy) pyrido[4,3-d]pyrimidin-4-amine] | 40
Nc1nc2c(-c3c(C(F)(F)F)cc4c(N5CC[C@H](CO)C5)nc(OC[C@@]56CCCN5C[C@H](F)C6)nc4c3F)ccc(F)c2s1 [Example 66, ((3S)-1-(7-(2-amino-7-fluorobenzo[d]thiazol-4-yl)-8-fluoro-2-(((2R,7aS)-2-fluorotetrahydro-1H-pyrrolizin-7a(5H)-yl)methoxy)-6-(trifluoromethyl)quinazolin-4-yl)pyrrolidin-3-yl)methanol] | 7.7
Nc1nc2c(-c3c(C(F)(F)F)cc4c(N[C@H]5C[C@H](F)C5)nc(OC[C@@]56CCCN5C[C@H](F)C6)nc4c3F)ccc(F)c2s1 [Example 16, 7-fluoro-4-(8-fluoro-4-(((trans)-3-fluorocyclobutyl)amino)-2-(((2R,7aS)-2-fluorotetrahydro-1H-pyrrolizin-7a(5H)-yl)methoxy)-6-(trifluoromethyl)quinazolin-7-yl)benzo[d]thiazol-2-amine] | 14
Cc1cc(N)nc(-c2c(Cl)cc3c(N4CCOC[C@@H]4C)nc(OC[C@@]45CCCN4C[C@H](F)C5)nc3c2F)c1C(F)(F)F [Example 105, 6-(6-chloro-8-fluoro-2-(((2R,7aS)-2-fluorotetrahydro-1H-pyrrolizin-7a(5H)-yl)methoxy)-4-((S)-3-methylmorpholino)quinazolin-7-yl)-4-methyl-5-(trifluoromethyl)pyridin-2-amine] | 25
Nc1nc2c(-c3c(C(F)(F)F)cc4c(N5CC[C@@H](O)C5)nc(OC[C@@]56CCCN5C[C@H](F)C6)nc4c3F)ccc(F)c2s1 [Example 63, (3R)-1-(7-(2-amino-7-fluorobenzo[d]thiazol-4-yl)-8-fluoro-2-(((2R,7aS)-2-fluorotetrahydro-1H-pyrrolizin-7a(5H)-yl)methoxy)-6-(trifluoromethyl)quinazolin-4-yl)pyrrolidin-3-ol] | 11
Nc1nc2c(-c3c(C(F)(F)F)cc4c(N5CC(CO)C5)nc(OC[C@@]56CCCN5C[C@H](F)C6)nc4c3F)ccc(F)c2s1 [Example 48, (1-(7-(2-amino-7-fluorobenzo[d]thiazol-4-yl)-8-fluoro-2-(((2R,7aS)-2-fluorotetrahydro-1H-pyrrolizin-7a(5H)-yl)methoxy)-6-(trifluoromethyl)quinazolin-4-yl)azetidin-3-yl)methanol] | 4.1
CC1CCN1c1nc(OC[C@@]23CCCN2C[C@H](F)C3)nc2c(F)c(-c3ccc(F)c4sc(N)nc34)c(C(F)(F)F)cc12 (stereo partly shown) [Example 35] | 30
N#C[C@@H]1CCN(c2nc(OC[C@@]34CCCN3C[C@H](F)C4)nc3c(F)c(-c4ccc(F)c5sc(N)nc45)c(C(F)(F)F)cc23)C[C@H]1O (mixture of isomers) [Example 75, 1-(7-(2-amino-7-fluorobenzo[d]thiazol-4-yl)-8-fluoro-2-(((2R,7aS)-2-fluorotetrahydro-1H-pyrrolizin-7a(5H)-yl)methoxy)-6-(trifluoromethyl)quinazolin-4-yl)-trans-3-hydroxypiperidine-4-carbonitrile] | 3.8
Nc1nc2c(-c3c(C(F)(F)F)cc4c(N[C@H]5C[C@@H](O)C5)nc(OC[C@@]56CCCN5C[C@H](F)C6)nc4c3F)ccc(F)c2s1 [Example 11, cis-3-((7-(2-amino-7-fluorobenzo[d]thiazol-4-yl)-8-fluoro-2-(((2R,7aS)-2-fluorotetrahydro-1H-pyrrolizin-7a(5H)-yl)methoxy)-6-(trifluoromethyl)quinazolin-4-yl)amino)cyclobutan-1-ol] | 4.4
Nc1nc2c(-c3c(C(F)(F)F)cc4c(N5CCCC(O)CC5)nc(OC[C@@]56CCCN5C[C@H](F)C6)nc4c3F)ccc(F)c2s1 (stereo partly drawn) [Example 84, 1-(7-(2-amino-7-fluorobenzo[d]thiazol-4-yl)-8-fluoro-2-(((2R,7aS)-2-fluorotetrahydro-1H-pyrrolizin-7a(5H)-yl)methoxy)-6-(trifluoromethyl)quinazolin-4-yl)azepan-4-ol] | 0.98
C[C@H]1CCCN1c1nc(OC[C@@]23CCCN2C[C@H](F)C3)nc2c(F)c(-c3ccc(F)c4sc(N)nc34)c(C(F)(F)F)cc12 [Example 56, 7-fluoro-4-(8-fluoro-2-(((2R,7aS)-2-fluorotetrahydro-1H-pyrrolizin-7a(5H)-yl)methoxy)-4-((S)-2-methylpyrrolidin-1-yl)-6-(trifluoromethyl)quinazolin-7-yl)benzo[d]thiazol-2-amine] | 22
